Experimental data: patent US20210308211A1, “METHOD OF TREATING VIRAL INFECTIONS” (priority 2020, published 2021)
Several values for one entry are separate records, joined by “and”; a condition that tells them apart may be missing. Equal values may be shown once. Entries after “also recorded” stand apart in the source; their conditions may differ. Non-standard residues stand in square brackets, D forms with d. Residues, ends and D or L forms follow the SMILES beside them. pS = N[C@@H](COP(=O)(O)O)C(=O)O

Assays:
MRL/lpr B cells = test: Cellular uptake of fluorescent P140 in MRL/lpr B cells (flow cytometry, confocal); assay type: cell-based, mouse
Text: FIG. 8. Cellular uptake of fluorescent P140 peptide in 5.4% mannitol or 10% trehalose in MRL/lpr B cells and Raji cells as visualized by flow cytometry. B cells were from 12-14 week-old MRL/lpr mice (primary cells); Raji cells are an established cell line derived in 1963 from B-lymphocyte of a patient with Burkitt's lymphoma.
FIG. 9. Confocal images of B cells of FIG. 10. All confocal images were taken in the same microscopic settings. Rab9 (red) identifies the late endosomal compartment where P140 localizes before homing into lysosomes DAPI (blue) identifies DNA.
For P140 peptide activity, HSC70 binding and endocytosis appear to be important. It is believed that endocytosis must occur through the clathrin route. This implies that peptide+excipient should have a size in the range of 30 to 500 nm in diameter. For example P140+mannitol are in the 100 nm region whereas P140+trehalose are below 10 nm and therefore not effective binding to HSC70. […] B cells were from 12-14 week-old MRL/lpr mice (primary cells); Raji cells are an established cell line derived in 1963 from B-lymphocyte of a patient with Burkitt's lymphoma. […] The confocal images show the late endosomal compartment where P140 localizes before homing into lysosomes; DAPI identifies DNA.

C57BL/6 mice = test: DSS-induced colonic inflammation model; assay type: in vivo, mouse
Text: Normal mice (C57BL/6; 7 week-old; males) have received the P140 peptide ([…], iv route; 10 mice) or saline only (control group; 10 mice) at days −2 and −1. At day 0, dextran sodium sulfate (DSS; 2-3%) was administrated to induce the disease.
Animals were examined every day for body weight loss, stool consistency, diarrhea, and blood in the feces. The animals were sacrificed around day 14 or at any time if they are very sick (loss >25% body weight). Statistics: Mann-Whitney (exact)

Balb/c mice = test: 15-day ovalbumin-induced airway hypereosinophilia model, BAL cell counts; assay type: in vivo, mouse; details: for B cells / Eosinophils / Macrophages / Neutrophils / T cells / Total cells: per mouse
Protocol: The anti-inflammatory effect of the P140 phosphopeptide was evaluated when administered locally (intranasally) or systemically (intravenously) in a 15-day model of hypereosinophilic airway inflammation in mice.
The P140 phosphopeptide was solubilized in sterile water (Braun) and 10× concentrate sterile saline was added to adjust osmolarity to 300 mosm. Osmolarity was controlled with a micro osmometer (Löser, type 15) and validated (302 mosm).
The P140 phosphopeptide was used in vivo at the dose of 4 mg/kg by intranasal (i.n.) and intravenous (i.v.) routes. Control animals received equivalent volumes (1 ml/kg for i.n. and 2 ml/kg for i.v.) of saline (Table 6).
Nine-week-old male Balb/c mice were sensitized by intraperitoneal (i.p.) injections of a mixture containing 50 μg OVA (Sigma-Aldrich) and 2 mg alum (Sigma-Aldrich) in 0.1 ml saline. Mice were challenged by i.n. administration of 25 μl of OVA on day 5, then 25 μl of OVA and/or saline on day 12, 13 and 14. Mice were treated by i.v. injection (2 ml/kg) or i.n. administration (1 ml/kg) of P140 or solvent on day 9 (See FIG. 9).
BAL was performed twenty-four hours after […] challenge as described (Daubeuf, F. and Frossard, N. 2012. Performing Bronchoalveolar Lavage in the Mouse. Curr Protoc Mouse Biol 2:167-175). Mice were anaesthetized IP (Ketamine 150 mg/kg—Xylasine 10 mg/kg). Blood was collected from the heart, centrifuged at 10,000 g for 2 min and serum stored at −20° C. After semi-excision of the trachea, a plastic cannula was inserted, and airspace washed with 0.5 ml of 0.9% NaCl injected with a 1 ml syringe. This procedure was performed 10 times. The initial concentrated supernatant of the 2 first lavages (volume=2×0.5 ml administered, ˜0.5 ml recovered) was collected for cytokine measurements. The remaining BAL fluid was centrifuged (300 g for 5 min, 4° C.), and cell pellets pooled. The cell pellet was suspended in 500 μl of 0.9% NaCl and used for total cell counts evaluated on a Muse® Cell Analyser. Differential cell counts were assessed by flow cytometry (LSRII® cytometer, BD Bioscience). BAL cells were added with FCblock (0.5 μl, 553142, BD Bioscience) in a black microplate, incubated for 20 min at room temperature. Then, marker antibodies were added: CD11c-FITC (557400, BD bioscience), Gr-1-Pe-eFluor610 (61-5931-82, eBioscience), CD11b-APC-Cy7 (557657, BD bioscience), CD45-AlexaFluor700 (103128, BioLegend), CD3-BV605 (564009, BD bioscience), CD19-PE-Cy7 (552854, BD bioscience). Antibodies were incubated with BAL cells for 30 min at room temperature before DAPI (5 μl, BD bioscience) addition, and flow cytometry was performed immediately.
Data are presented as means±SEM. Differences between groups were tested for statistical significance using one-way ANOVA followed by Tukey's post-test. For statistical analysis, control groups 1, 2 and 3 were pooled.

[1] = BAL, P140-IN (i.n. 4 mg/kg, day 9), OVA challenge
[2] = BAL, P140-IN (i.n. 4 mg/kg, day 9), saline challenge
[3] = BAL, P140-IV (i.v. 4 mg/kg, day 9), OVA challenge
[4] = BAL, P140-IV (i.v. 4 mg/kg, day 9), saline challenge

**Q.** How did the “Cellular uptake (flow cytometry)” value (MRL/lpr B cells; fluorescent peptide in 10% trehalose compared with 5.4% mannitol, MRL/lpr B cells) turn out when `CC[C@H](C)[C@H](NC(=O)[C@H](Cc1ccccc1)NC(=O)[C@H](C)NC(=O)[C@H](Cc1ccc(O)cc1)NC(=O)CNC(=O)[C@H](CCCNC(=N)N)NC(=O)[C@@H]1CCCN1C(=O)[C@H](CCCCN)NC(=O)CNC(=O)[C@H](COP(=O)(O)O)NC(=O)[C@H](CCCNC(=N)N)NC(=O)[C@H](CCCCN)NC(=O)[C@H](CO)NC(=O)[C@H](Cc1ccc(O)cc1)NC(=O)[C@@H](NC(=O)[C@H](CCSC)NC(=O)[C@H](Cc1c[nH]cn1)NC(=O)[C@@H](NC(=O)[C@@H](N)CCCNC(=N)N)[C@@H](C)CC)C(C)C)C(=O)N[C@@H](CCC(=O)O)C(=O)N[C@@H](Cc1ccc(O)cc1)C(=O)O` [Compound P140] (H-RIHMVYSKR[pS]GKPRGYAFIEY-OH; N-terminus and C-terminus assumed) was run?
**A.** Much less cellular uptake

**Q.** What about the “Entry into B cells (confocal microscopy)” value (MRL/lpr B cells; peptide in trehalose compared with mannitol) of the same molecule?
**A.** enters B cells much less

**Q.** And the DAI (C57BL/6 mice; P140 i.v. days −2 and −1 vs saline, p=0.5386)?
**A.** Little difference

**Q.** And the Colon size (C57BL/6 mice; P140 i.v. days −2 and −1 vs saline, reflects decrease of inflammation, p=0.0011)?
**A.** significant increase

**Q.** What about the Body weight (C57BL/6 mice; between the two groups) of the same molecule?
**A.** No difference

**Q.** And the “Day at which blood appeared in the feces” value (C57BL/6 mice; control groups day +6)?
**A.** +8 day

**Q.** And the B cells (Balb/c mice; [1])?
**A.** 25606 and 32251 and 26562 and 23383 and 33156 and 13236

**Q.** What about the Eosinophils (Balb/c mice; [1]) of the same molecule?
**A.** 490306 and 497948 and 737671 and 839841 and 792249 and 615171

**Q.** What about the Macrophages (Balb/c mice; [1]) of the same molecule?
**A.** 271110 and 322340 and 247391 and 538954 and 436210 and 286509

**Q.** What about the Neutrophils (Balb/c mice; [1]) of the same molecule?
**A.** 57542 and 60787 and 62354 and 95173 and 47346 and 65366

**Q.** What about the T cells (Balb/c mice; [1]) of the same molecule?
**A.** 44036 and 61800 and 73159 and 118360 and 101951 and 61293

**Q.** And the Total cells (Balb/c mice; [1])?
**A.** 862995 and 942875 and 1120576 and 1592328 and 1377755 and 1028339

**Q.** And the B cells (Balb/c mice; [2])?
**A.** 112 and 242

**Q.** What about the Eosinophils (Balb/c mice; [2]) of the same molecule?
**A.** 168 and 103

**Q.** What about the Macrophages (Balb/c mice; [2]) of the same molecule?
**A.** 388102 and 434029

**Q.** What about the Neutrophils (Balb/c mice; [2]) of the same molecule?
**A.** 56 and 61

**Q.** And the T cells (Balb/c mice; [2])?
**A.** 4135 and 4180

**Q.** What about the Total cells (Balb/c mice; [2]) of the same molecule?
**A.** 392461 and 438573

**Q.** What about the B cells (Balb/c mice; [3]) of the same molecule?
**A.** 10219 and 15209 and 14027 and 17417 and 11003 and 10922

**Q.** What about the Eosinophils (Balb/c mice; [3]) of the same molecule?
**A.** 425928 and 272763 and 473105 and 470027 and 327186 and 429469

**Q.** And the Macrophages (Balb/c mice; [3])?
**A.** 439265 and 442055 and 244523 and 293070 and 342134 and 379565

**Q.** What about the Neutrophils (Balb/c mice; [3]) of the same molecule?
**A.** 42783 and 21442 and 59616 and 76867 and 40275 and 31756

**Q.** What about the T cells (Balb/c mice; [3]) of the same molecule?
**A.** 41744 and 43881 and 32677 and 55502 and 28857 and 45030

**Q.** What about the Total cells (Balb/c mice; [3]) of the same molecule?
**A.** 949720 and 780142 and 809921 and 895467 and 738452 and 885821

**Q.** What about the B cells (Balb/c mice; [4]) of the same molecule?
**A.** 70 and 266

**Q.** And the Eosinophils (Balb/c mice; [4])?
**A.** 110 and 166

**Q.** And the Macrophages (Balb/c mice; [4])?
**A.** 335658 and 335200

**Q.** And the Neutrophils (Balb/c mice; [4])?
**A.** 259 and 133

**Q.** What about the T cells (Balb/c mice; [4]) of the same molecule?
**A.** 5311 and 4790

**Q.** What about the Total cells (Balb/c mice; [4]) of the same molecule?
**A.** 341738 and 340389

**Q.** And the “Number of cells recovered in BAL fluid as compared to vehicle” value (Balb/c mice; control mice challenged with saline, i.n. or i.v.)?
**A.** little effect

**Q.** And the “Inflammatory cell recruitment in BAL (in words)” value (Balb/c mice; i.n. route, 4 mg/kg, OVA challenge)?
**A.** little effect; also recorded: without substantial effect

**Q.** And the “Neutrophils recruitment, change vs OVA group” value (Balb/c mice; i.v. 4 mg/kg, OVA challenge, BAL, not significant)?
**A.** −38%

**Q.** And the “Eosinophil recruitment, change vs OVA group” value (Balb/c mice; i.v. 4 mg/kg, OVA challenge, BAL, p<0.001)?
**A.** −50%

**Q.** What about the “T cells recruitment, change vs OVA group” value (Balb/c mice; i.v. 4 mg/kg, OVA challenge, BAL, p<0.01) of the same molecule?
**A.** −66%

**Q.** What about the “B cells recruitment, change vs OVA group” value (Balb/c mice; i.v. 4 mg/kg, OVA challenge, BAL, p<0.05) of the same molecule?
**A.** −42%

**Q.** What about the “Anti-inflammatory effect (in words)” value (Balb/c mice; i.v. administration 4 mg/kg, OVA challenge) of the same molecule?
**A.** shows anti-inflammatory effect
